Test results: ChEMBL document CHEMBL4765295, “Synthesis, pharmacological profile and 2D-QSAR studies of curcumin-amino acid conjugates as potential drug candidates” (Eur J Med Chem, 2020)
“And” between values parts separate entries of the source, which are not always exact repeats. Equal values may be shown once.

What was measured:
[1] = test system: Rattus norvegicus; experiment: Anti-inflammatory activity in Wistar rat assessed as inhibition of carrageenan-induced paw edema at 10 mg/kg, ip pretreated for 1 hr followed by carrageenan challenge and measured after 2 hr relative to control (reference value: 0.00 +/-0.03 %); format: functional; conditions: time 3 hrs
[2] = test system: Staphylococcus aureus; experiment: Antibacterial activity against Staphylococcus aureus ATCC 25923 incubated for 18 hrs by agar dilution method; format: functional
[3] = test system: Rattus norvegicus; experiment: Antiinflammatory activity in Wistar rat model of carrageenan-induced paw edema assessed as reduction in thickness of paw edema at 10 mg/kg, ip pretreated for 1 hr followed by carrageenan challenge and measured after 4 hrs (reference value: 1.40 +/-0.10 mm); format: functional; conditions: time 5 hrs
[4] = test system: Streptococcus pyogenes; experiment: Antibacterial activity against Streptococcus pyogenes ATCC 19615 incubated for 18 hrs by agar dilution method; format: functional
[5] = test system: PC-3; experiment: Antiproliferative activity against human PC3 cells assessed as inhibition of cell growth after 72 hrs by MTT assay; format: functional, cell-based; conditions: PC-3, 72 h
[6] = test system: Peritoneal macrophage; experiment: Antiinflammatory activity in […] mouse Peritoneal macrophages assessed as inhibition of LPS-induced NO production at 10 uM preincubated for 1 hr followed by LPS stimulation measured after 24 hrs by Griess method relative to control (reference value: 0.0 %); format: functional; set-up: scale not given: the % may be the effect or the level left; conditions: time 25 hrs
[7] = test system: Pseudomonas aeruginosa; experiment: Antibacterial activity against Pseudomonas aeruginosa ATCC 27853 incubated for 18 hrs by agar dilution assay; format: functional
[8] = test system: Rattus norvegicus; experiment: Anti-inflammatory activity in Wistar rat assessed as inhibition of carrageenan-induced paw edema at 10 mg/kg, ip pretreated for 1 hr followed by carrageenan challenge and measured after 4 hr relative to control (reference value: 0.00 +/-0.4 %); format: functional; conditions: time 5 hrs
[9] = test system: Rattus norvegicus; experiment: Anti-inflammatory activity in Wistar rat assessed as inhibition of carrageenan-induced paw edema at 10 mg/kg, ip pretreated for 1 hr followed by carrageenan challenge and measured after 1 hr relative to control (reference value: 0.00 +/-0.02 %); format: functional; conditions: time 2 hrs
[10] = test system: A549; experiment: Antiproliferative activity against human A549 cells assessed as inhibition of cell growth after 72 hrs by MTT assay; format: functional, cell-based; conditions: A549, 72 h
[11] = test system: MCF7; experiment: Antiproliferative activity against human MCF7 cells assessed as inhibition of cell growth after 72 hrs by MTT assay; format: functional, cell-based; conditions: MCF7, 72 h
[12] = test system: Peritoneal macrophage; experiment: Antiinflammatory activity in […] mouse Peritoneal macrophages assessed as reduction in LPS-induced NO production by measuring reduction in stimulation index at 10 uM preincubated for 1 hr followed by LPS stimulation measured after 24 hrs by Griess method (reference value: 27.31 +/- 2.56 uM); format: functional; conditions: time 25 hrs
[13] = test system: Candida albicans; experiment: Antifungal activity against Candida albicans incubated for 18 to 24 hrs by CLSI method; format: functional; conditions: time 18-24 hrs
[14] = test system: Rattus norvegicus; experiment: Anti-inflammatory activity in Wistar rat assessed as inhibition of carrageenan-induced paw edema at 10 mg/kg, ip pretreated for 1 hr followed by carrageenan challenge and measured after 3 hr relative to control (reference value: 0.00 +/-0.1 %); format: functional; conditions: time 4 hrs
[15] = test system: Salmonella typhimurium; experiment: Antibacterial activity against Salmonella typhimurium ATCC 19430 incubated for 18 hrs by agar dilution assay; format: functional, Salmonella enterica subsp. enterica serovar Typhimurium; conditions: Salmonella enterica
[16] = test system: Splenocyte; experiment: Immunomodulatory activity in Swiss albino mouse splenocytes assessed as cell viability at 10 uM by measuring inhibition of stimulation index incubated for 72 hrs in presence of mitogenic stimulus phytohaemagglutinin by MTT assay relative to indomethacin; format: functional; conditions: read-out: Activity
[17] = test system: Rattus norvegicus; experiment: Antiinflammatory activity in Wistar rat model of carrageenan-induced paw edema assessed as reduction in thickness of paw edema at 10 mg/kg, ip pretreated for 1 hr followed by carrageenan challenge and measured after 24 hrs (reference value: 0.83 +/-0.08 mm); format: functional; conditions: time 25 hrs
[18] = test system: Rattus norvegicus; experiment: Antiinflammatory activity in Wistar rat model of carrageenan-induced paw edema assessed as reduction in thickness of paw edema at 10 mg/kg, ip pretreated for 1 hr followed by carrageenan challenge and measured after 3 hrs (reference value: 1.79 +/-0.07 mm); format: functional; conditions: time 4 hrs
[19] = test system: Rattus norvegicus; experiment: Anti-inflammatory activity in Wistar rat assessed as inhibition of carrageenan-induced paw edema at 10 mg/kg, ip pretreated for 1 hr followed by carrageenan challenge and measured after 4 hr relative to indomethacin; format: functional; conditions: time 5 hrs
[20] = test system: Rattus norvegicus; experiment: Anti-inflammatory activity in Wistar rat assessed as inhibition of carrageenan-induced paw edema at 10 mg/kg, ip pretreated for 1 hr followed by carrageenan challenge and measured after 24 hr relative to control (reference value: 0.00 +/-0.3 %); format: functional; conditions: time 25 hrs
[21] = test system: Rattus norvegicus; experiment: Antiinflammatory activity in Wistar rat model of carrageenan-induced paw edema assessed as reduction in thickness of paw edema at 10 mg/kg, ip pretreated for 1 hr followed by carrageenan challenge and measured after 1 hr (reference value: 2.41 +/-0.05 mm); format: functional; conditions: time 1 hr after carrageenan
[22] = test system: Rattus norvegicus; experiment: Antiinflammatory activity in Wistar rat model of carrageenan-induced paw edema assessed as reduction in thickness of paw edema at 10 mg/kg, ip pretreated for 1 hr followed by carrageenan challenge and measured after 2 hrs (reference value: 2.06 +/-0.09 mm); format: functional; conditions: time 3 hrs
[23] = test system: Splenocyte; experiment: Immunomodulatory activity in Swiss albino mouse splenocytes assessed as cell viability at 10 uM by measuring stimulation index incubated for 72 hrs in presence of mitogenic stimulus phytohaemagglutinin by MTT assay (reference value: 1.00 +/- 0.24); format: functional
[24] = test system: Mus musculus; experiment: Analgesic activity in albino mouse assessed as protection at 10 mg/kg, ip measured after 90 mins by hot plate test (reference value: 0 %); format: functional; conditions: 1.5 h
[25] = Ulcerogenic activity in fasted albino mouse assessed as average number of ulcers in gastric mucosa at 10 mg/kg, po for 3 days (reference value: 0); format: toxicity, organism-based; conditions: in vivo, 72 h, time 3 day
[26] = test system: Mus musculus; experiment: Analgesic activity in albino mouse assessed as forepaw licking/jumping latency time at 10 mg/kg, ip measured after 30 mins by hot plate test (reference value: 5.02 +/- 0.09 sec); format: functional; conditions: 0.5 h
[27] = Ulcerogenic activity in fasted albino mouse assessed as average severity of ulcers in gastric mucosa at 10 mg/kg, po for 3 days (reference value: 0); format: toxicity, organism-based; conditions: in vivo, 72 h, time 3 day
[28] = test system: Mus musculus; experiment: Analgesic activity in albino mouse assessed as protection at 10 mg/kg, ip measured after 120 mins by hot plate test relative to indomethacin; format: functional; conditions: 2 h
[29] = test system: Mus musculus; experiment: Analgesic activity in albino mouse assessed protection against acetic acid-induced abdominal writhing at 10 mg/kg, ip pretreated for 1 hr followed by acetic acid challenge and measured starting 5 mins post acetic acid challenge for 10 mins relative to indomethacin; format: functional; conditions: time 75 min, 1.25 h
[30] = test system: Mus musculus; experiment: Analgesic activity in albino mouse assessed as protection at 10 mg/kg, ip measured after 60 mins by hot plate test (reference value: 0 %); format: functional; conditions: 1 h
[31] = Ulcerogenic activity in fasted albino mouse assessed as incidence of gastric ulceration at 10 mg/kg, po for 3 days (reference value: 0 %); format: toxicity, organism-based; conditions: in vivo, 72 h, time 3 day
[32] = Toxicity in albino mouse assessed as induction of toxic symptoms at 50 to 100 mg/kg, ip measured after 24 hrs; format: organism-based; conditions: in vivo, dose 50-100 mg/kg
[33] = test system: Mus musculus; experiment: Analgesic activity in albino mouse assessed protection against acetic acid-induced abdominal writhing at 10 mg/kg, ip pretreated for 1 hr followed by acetic acid challenge and measured starting 5 mins post acetic acid challenge for 10 mins relative to control (reference value: 0 %); format: functional; conditions: time 75 min, 1.25 h
[34] = test system: Mus musculus; experiment: Analgesic activity in albino mouse assessed as forepaw licking/jumping latency time at 10 mg/kg, ip measured after 90 mins by hot plate test (reference value: 2.72 +/- 0.01 sec); format: functional; conditions: 1.5 h
[35] = test system: Mus musculus; experiment: Analgesic activity in albino mouse assessed as forepaw licking/jumping latency time at 10 mg/kg, ip measured after 120 mins by hot plate test (reference value: 2.62 +/- 0.06 sec); format: functional; conditions: 2 h
[36] = Ulcerogenic activity in fasted albino mouse assessed as ulcer index in gastric mucosa at 10 mg/kg, po for 3 days (reference value: 0); format: toxicity, organism-based; conditions: in vivo, 72 h, time 3 day
[37] = test system: Mus musculus; experiment: Analgesic activity in albino mouse assessed as protection at 10 mg/kg, ip measured after 120 mins by hot plate test (reference value: 0 %); format: functional; conditions: 2 h
[38] = test system: Mus musculus; experiment: Analgesic activity in albino mouse assessed as forepaw licking/jumping latency time at 10 mg/kg, ip measured after 60 mins by hot plate test (reference value: 3.42 +/- 0.03 sec); format: functional; conditions: 1 h
[39] = test system: Mus musculus; experiment: Analgesic activity in albino mouse assessed as protection at 10 mg/kg, ip measured after 30 mins by hot plate test (reference value: 0 %); format: functional; conditions: 0.5 h
[40] = test system: Mus musculus; experiment: Analgesic activity in albino mouse assessed reduction in acetic acid-induced abdominal writhing by measuring writing reflex at 10 mg/kg, ip pretreated for 1 hr followed by acetic acid challenge and measured starting 5 mins post acetic acid challenge for 10 mins (reference value: 42.4 +/- 1.02); format: functional; conditions: time 75 min, 1.25 h

MIC [2]	MIC [4]	IC50 [5]	MIC [7]	IC50 [10]	IC50 [11]	MIC [13]	MIC [15]	Structure (SMILES)	inhibition in vivo at 10 mg/kg [1]	Activity [3]	Activity [6]	inhibition in vivo at 10 mg/kg [8]	inhibition in vivo at 10 mg/kg [9]	Activity [12]	inhibition in vivo at 10 mg/kg [14]	viability at 10 µM [16]	Activity [17]	Activity [18]	inhibition in vivo at 10 mg/kg [19]	inhibition in vivo at 10 mg/kg [20]	other results
0.25 µg/mL and 0.358 µM	0.5 µg/mL and 0.717 µM	34.4 µM	0.5 µg/mL and 0.717 µM	21.1 µM	9.15 µM	0.125 µg/mL and 0.179 µM	0.125 µg/mL and 0.179 µM	COc1cc(/C=C/C(=O)/C=C(O)/C=C/c2ccc(OC(=O)[C@@H](N)CCC(N)=O)c(OC)c2)ccc1OC(=O)[C@@H](N)CCC(N)=O.Cl.Cl	45%	0.81 mm	20.35%	42%	46%	21.75 µM	43%	54.5%	0.57 mm	1.02 mm	48%	31%	Activity [21]: 1.29 mm; Activity [22]: 1.14 mm; Activity_index [23]: 2.22
0.5 µg/mL and 0.9 µM	0.25 µg/mL and 0.45 µM	38.7 µM	1 µg/mL and 1.8 µM	18.9 µM	9.15 µM	1 µg/mL and 1.8 µM	0.25 µg/mL and 0.45 µM	COc1cc(/C=C/C(=O)/C=C(O)/C=C/c2ccc(OC(=O)CN)c(OC)c2)ccc1OC(=O)CN.Cl.Cl	67%	0.17 mm	49.98%	88%	66%	13.66 µM	74%	122%	0.48 mm	0.46 mm	101%	42%	Activity [24]: 34.6%; Activity [25]: 0; Time [26]: 5.04 s; Activity [27]: 0; Activity [28]: 81.9%; Activity [29]: 106.5%; Activity [30]: 25.1%; Activity [31]: 0%; Activity [32]: Non-Toxic; Activity [33]: 65.6%; Time [34]: 3.66 s; Time [35]: 3.52 s; UI [36]: 0; Activity [37]: 34.4%; Time [38]: 4.28 s; Activity [39]: 0.4%; Activity [21]: 0.82 mm; Activity [40]: 14.6; Activity [22]: 0.69 mm; Activity_index [23]: 0.99
